Legend:
[1] = Dynamic vapor sorption (DVS) hygroscopicity; type: physicochemical; details: relative humidity of 10% to 90%; for stability from the hygroscopic aspect: expected from the DVS result
Method: Dynamic vapor sorption (DVS) analysis was performed in a DVS advantage (Surface measurement system, United Kingdom) analyzer at 25° C. with a relative humidity of 0% to 90%. A sample in an amount of 10 mg was placed into a wire-mesh vapor sorption balance pan and then attached to a DVS advantage dynamic vapor sorption balance via surface measurement systems. Until a stable weight was achieved (99.5% completion of steps), the sample was applied to a ramping profile with a relative humidity of 10% to 90% with a 10% increase of the sample while maintaining the sample in each step. Upon completion of the sorption cycle, the sample was dried using the same process while maintaining a relative humidity of […]. The changes in the sample weight during the adsorption/desorption cycle (repeated 3 times) were recorded and the hygroscopicity of the sample was measured.

[2] = Storage stability under long-term and accelerated conditions; type: physicochemical; details: for stability under a long-term storage condition: temperature of 25° C. and relative humidity of 60%; for stability under an accelerated condition: temperature of 40° C. and relative humidity of 75%
Method: High performance liquid chromatography (HPLC) analysis was performed for the purposes of analyzing purity and contents such as a stability test, etc., using an Agilent 1100/1200 series HPLC Systems (Agilent, USA) analyzer, and the conditions used for HPLC were as follows.

stability from the hygroscopic aspect [1]	water content / hygroscopic level in the DVS ([1]; 25° C.)	stability under a long-term storage condition [2]	stability under an accelerated condition [2]	Structure (SMILES)
unstable				C=CC(=O)Nc1cccc(Oc2nc(Nc3ccc(N4CCN(C)CC4)cc3)nc3ccsc23)c1 [Comparative Example 1, N-(3-(2-(4-(4-methylpiperazin-1-yl)phenylamino)thieno[3,2-d]pyrimidin-4-yloxy)phenyl)acrylamide, reference compound]
stable	about 1.5%			C=CC(=O)Nc1cccc(Oc2nc(Nc3ccc(N4CCN(C)CC4)cc3)nc3ccsc23)c1 [Example 1, N-(3-(2-(4-(4-methylpiperazin-1-yl)phenylamino)thieno[3,2-d]pyrimidin-4-yloxy)phenyl)acrylamide]
very stable		very stable	very stable	C=CC(=O)Nc1cccc(Oc2nc(Nc3ccc(N4CCN(C)CC4)cc3)nc3ccsc23)c1 [Example 3, N-(3-(2-(4-(4-methylpiperazin-1-yl)phenylamino)thieno[3,2-d]pyrimidin-4-yloxy)phenyl)acrylamide]
very stable		very stable	very stable	C=CC(=O)Nc1cccc(Oc2nc(Nc3ccc(N4CCN(C)CC4)cc3)nc3ccsc23)c1 [Example 4, N-(3-(2-(4-(4-methylpiperazin-1-yl)phenylamino)thieno[3,2-d]pyrimidin-4-yloxy)phenyl)acrylamide]

— patent US10464946B2, “Crystalline forms of thienopyrimidine compound” (HANMI PHARM. CO., LTD., priority 2015, dated 2019)
